Measurements: patent US20070274916A1, “Method for Identifying Compounds that Affect Expression of Tryptophan Hydroxylase Isoform 2” (priority 2003, published 2007)
Entries after “also recorded” stand apart in the source; their conditions may differ.

Columns and labels:
Type in all cases: in vivo, mouse
TPH2 mRNA [1] = experiment: TPH2 mRNA in raphe slice preparation of male BKTO mice under chronic corticosterone, real-time RT-PCR; conditions: 14 days, equivalent of 40mg/kg/day
Experimental: (§1) Male BKTO mice (Bantin and Kingman, Hull UK) weighing 25 g at the start of the experiment were briefly anaesthetized using isofluorane. Animals were implanted with 4×5 mg cortic/sterone pellets (Innovative Research of America, catalogue number G-111, 21 day release formulation) or 4× placebo pellets (catalogue number NC-111) this gave an equivalent of 40mg/kg/day of corticosterone. Pellets were implanted using a trochar supplied by the manufacturer which had been modified to allow 4 pellets to be held in one trochar, thus requiring only one incision per animal. The most ideal place to implant the pellet was where there is maximal space between the skin and the muscle such as the lateral side of the neck between the ear and the shoulder-no stitching or wound clipping was required when using this technique. Animals were returned to the home cage and allowed to recover. Fourteen days later, the animals were humanely killed and trunk blood collected into EDTA coated tubes, centrifuged for 10 minutes at 3000 rpm, and plasma removed and frozen on dry ice until ready for analysis. Brains were removed, frozen in isopentane, and stored at −80° C. until ready for analysis. […] Plasma corticosterone was analyzed using a COAT-A-COUNT rat corticosterone radioimmunoassay kit (DPC Products-Order no TKRC1). […]

[2] = Plasma corticosterone in male BKTO mice (radioimmunoassay); conditions: 4×5 mg pellets, equivalent of 40mg/kg/day, 14 days, FIG. 10, p=0.004
Experimental: as §1

TPH1 mRNA = TPH1 mRNA levels in murine raphe slice preparation by real-time RT-PCR; conditions: FIG. 6
Source text: (§2) Female mice (13 to 16 wks of age) were ovariectomized (C57BL/6s from Charles River; ER Knockout animals from Taconic). Animals were fed a soy-free rodent chow and allowed a minimum of one week to recuperate from surgery and shipping. […] Approximately six hours following the fourth dose, mice were deeply anesthetized with ketamine/xylazine and brains were removed from the skull, placed ventral side up in a mouse brain block on ice, and ice-cold razor blades were inserted into the block at 1 mm intervals. The caudal extent of the hypothalamus was used as an anatomical marker for the placement of the first razor blade, and 4 blades were placed in sequential slots, caudally. The four sections were examined and the two that encompassed the greatest extent of the dorsal raphe were placed in a tube containing RNALATER (Ambion, Austin, Tex.) and placed at 4° C. overnight. Brain slices were removed from RNALATER after 24 hours and stored at −80° C. in fresh tubes.
(§3) Isolation of total RNA from mouse raphe slices for real-time PCR analysis using the TAQMAN ABI PRISMS 7700 Detection System, Applied Biosystems, Foster City, Calif. was as follows. Samples were stored in RNALATER at 4° C. overnight followed by removal of RNALATER and storage at −80° C. until isolation of the total RNA (2 slices weigh 25 to 50 mg). Slices were removed from −80° C. and placed in 1.0 mL TRIZOL Reagent in FASTPREP processing tubes. Slices were homogenized with one pass at setting 6 for 30 seconds in FASTPREP 120 homogenizer using LYSING MATRIX D tubes with bead matrix followed by 20 seconds at setting 6 after all samples had been processed. Samples were set at room temperature for 5 minutes to allow for complete dissociation of nucleoprotein complexes followed by centrifugation of the samples at 12,000×g for 5 minutes at 4° C. Homogenates were transferred to 1.5 mL; microcentrifuge tubes and 100 μL BCP (Bromo-3-chloropropane) was added. Samples were vortexed for 15 seconds and set at room temperature for 2 to 3 minutes. Samples were centrifuged at 12,000×g for 15 minutes at 4° C. The aqueous layer was removed and placed in a new RNAse-free sterile 1.5 mL microcentrifuge tube. Five μL of 5 mg/μL glycogen was added to each sample and the samples were vortexed. Five hundred μL of isopropanol was added to each sample. The samples were vortexed for 15 seconds, set at room temperature 10 minutes, followed by centrifugation at 12,000×g for 15 minutes at 4° C. Supernatants were decanted and pellets washed with 500 μL ice cold 75% ethanol. Samples were centrifuged at 12,000×g for 15 minutes at 4° C., ethanol decanted, and pellets air dried for 10 minutes. Pellets were resuspended in 30 μL prewarmed RNASECURE (60° C.), and heated at 60° C. for 10 min. Samples were stored at −80° C. until DNAse treatment and cDNA synthesis.
DNase treatment and cDNA preparation with wt mouse raphe slice total RNA for TAQMAN analysis. DNase treatment using DNA-free kit (Ambion). Five μg of the total RNA sample was aliquotted to each well of a 96 well plate. An 1× DNase I solution was added to each sample (DNase I buffer, DNase I, H2O). Reactions were mixed and incubated at 37° C. for 30 minutes. Reactions were inactivated by addition of DNase inactivation reagent beads, mixed well at room temperature for 3 minutes and centrifuged at 2,500 RPM for 1 minutes at 4° C. (25 μL reactions were run and inactivated with 1/10 volume of inactivation reagent).
Reverse Transcription. A 10 μL of the DNase I-treated total RNA was added to 40 μL of 1× reverse transcription reaction mix (DEPC treated H2O, RT buffer, MgCl2, dNTP mix, random hexamers, RNase inhibitor, and MULTISCRIBE RT) and incubated at 25° C. for 10 minutes, 48° C. for 30 minutes, and 95° C. for 5 minutes. Reverse transcription was halted by the addition of EDTA. Samples were transferred to a storage plate and stored at −20° C. […]

TPH2 mRNA [3] = experiment: TPH2 mRNA levels in murine raphe slice preparation of ovariectomized female mice by real-time RT-PCR; conditions: prednisolone 10 mpk once daily; FIGS. 7 and 8
Source text: as §2, with “RNALATER” left out
Two TPH2 primer and probe sets were generated for use in detecting TPH2 by real-time RT-PCR. Murine TPH2 forward primers were mTPH2-514F and mTPH2-1270F, their corresponding sequences are 5′-[…]-3′ (SEQ ID NO:7; corresponding to nucleotides 514 to 535 of the nucleotide sequence encoding TPH2) and 5′-[…]-3′ (SEQ ID NO:8; corresponding to nucleotides 1270 to 1290 of the nucleotide sequence encoding TPH2), respectively. The murine TPH2 reverse primers were mTPH2-585R and mTPH2-1344R, their corresponding sequences are 5′-[…]-3′ (SEQ ID NO:9; corresponding to nucleotides 567 to 585 of the nucleotide sequence encoding TPH2) and 5′-[…]-3′ (SEQ ID NO:10; corresponding to nucleotides 1324 to 1344 of the nucleotide sequence encoding TPH2), respectively. The murine TPH2 probes were mTPH2-565T and mTPH2-1292T, their corresponding sequences are: 5′-[…]-3′ (SEQ ID NO:11; corresponding to nucleotides 539 to 565 of the nucleotide sequence encoding TPH2) and 5′-[…]-3′ (SEQ ID NO:12; corresponding to nucleotides 1292 to 1317 of the nucleotide sequence encoding TPH2), respectively. The probes were labeled at the 5′ end with FAM and the 3′ end with TAMRA.
as §3, with “RNALATER” left out, “ethanol.” for “ethanol. Samples were centrifuged at 12,000×g for 15 minutes at 4° C., ethanol decanted, and pellets air dried for 10 minutes. Pellets were resuspended in 30 μL prewarmed RNASECURE (60° C.), and heated at 60° C. for 10 min. Samples were stored at −80° C. until DNAse treatment and cDNA synthesis.”

| Structure (SMILES) | level of TPH2 mRNA in raphe slice preparation (TPH2 mRNA [1]; FIG. 11, p=0.01) | level of TPH2 mRNA in raphe slice preparation (TPH2 mRNA [1]; FIG. 11, p=0.01, listed as corticosterone) | plasma levels after treatment [2] | effect on TPH1 mRNA levels (TPH1 mRNA; 10 mpk s.c., ovariectomized mice) | change of TPH1 mRNA levels in response to treatment (TPH1 mRNA; murine raphe slice preparations, dose not stated) | effect on TPH2 mRNA expression compared to vehicle (TPH2 mRNA [3]) |
| --- | --- | --- | --- | --- | --- | --- |
| C[C@]12C[C@H](O)[C@H]3[C@@H](CCC4=CC(=O)CC[C@@]43C)[C@@H]1CC[C@@H]2C(=O)CO [corticosterone] | significantly reduced | significant decrease | significant increase |  |  |  |
| C[C@]12C=CC(=O)C=C1CC[C@@H]1[C@@H]2[C@@H](O)C[C@@]2(C)[C@H]1CC[C@]2(O)C(=O)CO [prednisolone] |  |  |  | neither 3 mpk of dexamethasone nor 10 mpk prednisolone had any effect; also recorded: no effect | no detectable change | decrease; also recorded: significant reduction |
